Assay results published in patent publication US10870635B2, “Compounds and their use as BACE1 inhibitors” (ALLGENESIS BIOTHERAPEUTICS, INC., priority 2015, dated 2020).

What was measured:
recombinant BACE2 = recombinant BACE2 (Homo sapiens (Human), UniProt Q9Y5Z0); assay: AnaSpec BACE2 fluorescent assay; assay type: biochemical
Description: A BACE2 activity assay kit from AnaSpec (Fremont, Calif.) was used to determine the potency of the selected compounds by AnaSpec BACE2 fluorescent assay. To each well of a black 96-well micro plate, 50 μl of the β-secretase substrate (Hylite Fluor 488) diluted 1:100 using assay buffer was first added.
The compounds were serially diluted (1:2) into DMSO from their 10 mM stock concentrations in DMSO. The serially diluted inhibitors were diluted 1:100 into 1× assay buffer in a 96-well polypropylene plate (assay dilution plate). The final concentration of these compounds tested was 300 nM, 150 nM, 75 nM, 37.5 nM, 18.75 nM, 9.375 nM, 4.688 nM, 2.344 nM, 1.172 nM, 0.586 nM, and 0.293 nM.
A volume of 10 μl of the inhibitor from the assay dilution plate, a control inhibitor LY2886721 or inhibitor vehicle was then added to each well of the black 96-well micro plate.
The recombinant BACE2 was diluted in an assay buffer and the final BACE2 was 10.6 nM. The enzyme was added in a volume of 40 μl to each well of a black 96-well micro plate.
(§1) The reagents were mixed gently and the assay plate was placed into a POLARstar fluorescent plate reader with excitation wavelength set at 485 nm and the emission wavelength set at 520 nm. The plate reader was set to take readings every 5 minutes for up to 30 minutes or a 30 minute endpoint reading was used.
An appropriate integrated first-order rate equation was used to fit the data accumulated over a 30-40 minute collection period. Dose responses for inhibitors were run in duplicate.

[1] = target: Human recombinant cathepsin D (Homo sapiens (Human), UniProt P07339); assay: Cathepsin D activity assay; assay type: biochemical; conditions: read-out: CatD IC50
Description: The development of a CatD activity assay is used to determine any potential cross reactivity for compounds selected from the β-secretase activity assay and to determine the selectivity to BACE1 inhibition. The CatD activity is reported for assessing target selectivity ratio (CatD IC50/BACE1 IC50).
The reagents for the cathepsin D assay were prepared as follows.
Human recombinant cathepsin D stored frozen in 2.0 μl aliquots was thawed and 42 μl of enzyme buffer (0.1M NaOAC, 0.2 M NaCl, pH 3.5) was added and incubated at 37° C. for 30 minutes. After 30 minutes the enzyme was further diluted to a final volume of 4.4 ml in enzyme buffer containing 5.0 mM DTT for immediate use in the cathepsin D assay.
The 7-methoxycoumarin-labeled peptide substrate (ES010) for cathepsin D was supplied as a 6.2 mM stock in DMSO. For use in the cathepsin D assay, the 6.2 mM stock was diluted to a 1.55 mM stock with DMSO. The 1.55 mM peptide stock in DMSO was further diluted 1:100 in reaction buffer (0.1M NaOAC, 0.2M NaCl, 0.1% Tween 20, 5.0 mM DTT, pH3.5) to create a 15.5 μM stock for use in the assay.
DMSO without compound served as a DMSO vehicle control for the cathepsin D assay. For each test compound, 30 μl of each dilution was pipetted into a separate well of a 96-well polypropylene plate. This polypropylene plate was labeled as the DMSO dilution plate and a plate map of test compound locations was made.
Test compounds from the DMSO dilution plate require a 1:100 dilution into reaction buffer before they can be added to the cathepsin D assay plate. To accomplish the 1:100 dilution of test compounds, 2.0 μl of each test compound at each concentration was pipetted from the DMSO dilution plate (using a multi-channel pipette calibrated to accurately dispense a 2.0 μl volume) into a new 96-well polypropylene plate using the plate map created for the DMSO dilution plate. This 96-well plate served as the inhibitor dilution plate. Next, 198 μl of reaction buffer was pipetted into each well of the inhibitor dilution plate (using a multi-channel pipette calibrated for accurate delivery of a 198 μl volume) and the pipetted test compound mixed by gentle up and down pipetting.
A1.0 mM stock of pepstatin A was made in DMSO and aliquotted into 5.0 μl samples for freezing and storage at −20° C. Upon thawing, 45 μl of DMSO (1:10 dilution) was added to create a 100 μM stock of pepstatin A in DMSO. The 100 μM Pepstatin A stock was further diluted 1:10 with DMSO to create a 10 μM stock in DMSO. […]
The assay plate was placed into a fluorescent plate reader with the excitation wavelength set at 320 nm and the emission wavelength set at 405 nm. Readings were collected every minute over a 30 minute collection period.

[2] = target: pepsin (activated recombinant human pepsinogen A) (Homo sapiens (Human), UniProt P0DJD9); assay: Pepsin activity assay; assay type: biochemical
Description: 30 mM stocks of the experimental inhibitor compounds were prepared in DMSO. A 10 mM concentration of the inhibitor was prepared by diluting the 30 mM stock 3-fold in DMSO (30 μl of the [30 mM]:60 μl DMSO). 10-fold serial dilutions of 10 mM and 30 mM stocks were made on a dilution plate..
The pepstatin A inhibitor was received from Tocris Bioscience as 10 mg of lyophilized powder. DMSO was used to reconstitute the powder to a 10 mM concentration, which was aliquoted and stored at −20° C. A 40 μl volume of the 10 mM stock was thawed before use. 10-fold serial dilutions of 10 mM and 3 mM stocks were made in DMSO on a dilution plate.
Using a multichannel pipette, take a 2 μl volume of the diluted samples from the dilution plate into a new polypropylene 96-well plate. […]
After the enzyme addition, the substrate was added to each well in 50 μl volumes. […] The plate was immediately sealed and placed on a shaker set to 350 rpm for approximately 30 sec prior to reading in the Polar Star plate reader at room temperature with the excitation wavelength set at 320 nm, the emission wavelength set at 405 nm. Readings were taken every 41 seconds for approximately 25 minutes.
The selected BACE1 inhibitors in accordance with examples of the invention were then determined for Pepsin activity and target selectivity ratio (Pepsin IC50/BACE1 IC50).

[3] = test system: Aβ38, Aβ40 and Aβ42 in CSF; assay: Efficacy study in monkeys: Aβ biomarkers in CSF after single oral administration; assay type: in vivo, cynomolgus monkeys; conditions: Monkey CSF
Excerpt: Certain isoforms of amyloid β peptide (AR), such as Aβ338, Aβ340 and Aβ342 have been established as relevant biomarkers that reflect BACE1 activity and have been exploited to establish translational relationships between different cellular assays and animal models. In this efficacy study, mammals were used to assess amyloid β reduction with BACE1 inhibitors. In a clinical setting, plasma and cerebrospinal fluid (CSF) are the accessible compartments to measure soluble amyloid β levels to determine target profile. It is important to analyze plasma and CSF levels which relate to changes in brain amyloid β levels. The concentration of BACE1 inhibitors and their time-dependent reduction of plasma, CSF and brain amyloid β levels were investigated following intravenous and oral administrations of BACE1 inhibitors.
a (ii). Formulation for PO administration: 5% (v/v) PEG400+95% (v/v) of 1% (w/v) methyl cellulose in water (the viscosity of methyl cellulose is 20 g/L, 20° C., cPa·s: 350.0-550.0). The test article solutions were prepared by dissolving the compound in PEG400 followed by the addition of the aqueous solution to the final volume.
For the oral formulation of a BACE1 inhibitor in the monkey efficacy study (at the dose of 20 mg/kg with the concentration of 2 mg/ml)
1) Weighed […] of the selected BACE1 inhibitors into a clean vial;
2) Added 2.826 mL of PEG400 into the tube containing the compound. Then vortexed for 5 min and sonicated for 45 min;
3) Added 53.688 mL of 1% MC in water into the tube containing the compound. Then vortexed for 4 min and sonicated for 4 min; and
4) Adjusted the pH to the physiological value by using 1N NaOH.
Several studies have shown that drug transport into the CNS may be more similar between humans and primates. […] To explore the mechanism of BACE1 compounds, the compounds were tested using this in vivo study. […] The monkey Aβ reduction study usually takes 3 weeks.
The time-course profiles of neurodegeneration biomarkers were determined following single oral administration of the selected BACE1 inhibitors to male cynomolgus monkeys. Blood samples were collected from all animals via the saphenous vein or cephalic vein at 0 (pre-dose), 0.5, 1, 3, 6, 8, 12 and 24 hr post-dose into test tubes containing potassium ethylenediaminotetraacetic acid (K2EDTA). CSF samples were collected via a pre-implanted cannula at the foramina occipital magnum site at 0 (pre-dose), 3, 6, 12 and 24 hr post-dose.
Plasma was separated from the blood by centrifugation at 4° C. and stored at −80° C. until analyzing. The biomarkers of Aβ38, Aβ40 and Aβ42 in CSF were quantified using Meso Scale Discovery (MSD) multiplex electrochemiluminescence immunoassay according to the manufacturer's instructions. The plates were first blocked with 150 μL of Diluent 35 for 1 hour at room temperature with constant shaking at 600 rpm. After washing three times with 200 μL washing buffer, 25 μL of 1× detection antibody solution, plus Aβ40 blocker, 25 μL of seven standards, zero standard and four-fold diluted samples were added to the assay plate. The plate was incubated for 2 hours at room temperature, with constant shaking at 600 rpm. Upon finishing, the plate was washed three times with washing buffer and read in a Sector Imager 6000 (MSD) immediately after addition of 150 μL of 2× Read Buffer T. Aβ concentrations were calculated with reference to the standard curves of each individual peptide and expressed as pg/mL using SoftMax Pro GXP 5.4.4.

[4] = target: BACE1 (recombinant β-secretase enzyme) (Homo sapiens (Human), UniProt P56817); assay: AnaSpec BACE1 fluorescent assay (beta-secretase activity assay); assay type: biochemical
Description: A BACE1 activity assay kit from AnaSpec (Fremont, Calif.) was used to determine the potency of the selected BACE1 inhibitors by AnaSpec BACE1 fluorescent assay. The recombinant β-secretase enzyme was diluted 1:200 in 1× assay buffer (1 part of 1× assay buffer and 1 part of TBS containing 0.1% Tween 20). The enzyme was added in a volume of 40 μl to each well of a black 96-well micro plate.
The BACE1 inhibitors were serially diluted into DMSO from their 10 mM stock concentrations in DMSO. The serially diluted inhibitors were diluted 1:100 into 1× assay buffer in a 96-well polypropylene plate (assay dilution plate). The final concentration of the BACE1 inhibitor tested was 300 nM, 100 nM, 30 nM, 10 nM, 3 nM, 1 nM 0.3 nM, and 0.00 nM. Dose responses for inhibitors were run in duplicate.
A volume of 10 μl of the inhibitor from the assay dilution plate, a control inhibitor LY2886721 or inhibitor vehicle was then added to each well of the black 96-well micro plate containing BACE1.
as §1, with “To each well of the black 96-well micro plate, 50 μl of the β-secretase substrate (Hylite Fluor 488) diluted 1:100 using assay buffer was added. The reagents” for “The reagents”
An appropriate integrated first-order rate equation was used to fit the data accumulated over a 30-40 minute collection period.

Sequence of pepsin (activated recombinant human pepsinogen A) (P0DJD9 63-388): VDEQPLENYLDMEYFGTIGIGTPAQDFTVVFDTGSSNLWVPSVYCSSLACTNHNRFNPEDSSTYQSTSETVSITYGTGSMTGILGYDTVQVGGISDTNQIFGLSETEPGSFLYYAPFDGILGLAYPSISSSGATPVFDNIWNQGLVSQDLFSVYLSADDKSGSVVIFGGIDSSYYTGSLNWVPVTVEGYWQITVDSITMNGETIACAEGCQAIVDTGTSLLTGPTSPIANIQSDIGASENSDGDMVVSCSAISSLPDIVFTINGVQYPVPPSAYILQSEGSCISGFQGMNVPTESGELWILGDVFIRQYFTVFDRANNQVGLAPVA
Sequence of recombinant BACE2 (Q9Y5Z0 63-518): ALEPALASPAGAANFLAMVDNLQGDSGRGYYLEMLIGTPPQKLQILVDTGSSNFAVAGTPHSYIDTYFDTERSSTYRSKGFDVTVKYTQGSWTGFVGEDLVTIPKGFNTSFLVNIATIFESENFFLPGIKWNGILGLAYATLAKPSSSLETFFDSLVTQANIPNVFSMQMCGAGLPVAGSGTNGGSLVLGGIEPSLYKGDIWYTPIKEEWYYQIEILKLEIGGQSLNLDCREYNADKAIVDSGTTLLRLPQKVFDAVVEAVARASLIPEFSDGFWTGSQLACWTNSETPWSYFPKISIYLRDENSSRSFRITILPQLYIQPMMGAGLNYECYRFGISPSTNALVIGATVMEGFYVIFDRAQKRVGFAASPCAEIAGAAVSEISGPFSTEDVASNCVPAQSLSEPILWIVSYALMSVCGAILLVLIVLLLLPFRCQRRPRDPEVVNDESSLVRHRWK
Sequence of BACE1 (recombinant β-secretase enzyme) (P56817 46-501): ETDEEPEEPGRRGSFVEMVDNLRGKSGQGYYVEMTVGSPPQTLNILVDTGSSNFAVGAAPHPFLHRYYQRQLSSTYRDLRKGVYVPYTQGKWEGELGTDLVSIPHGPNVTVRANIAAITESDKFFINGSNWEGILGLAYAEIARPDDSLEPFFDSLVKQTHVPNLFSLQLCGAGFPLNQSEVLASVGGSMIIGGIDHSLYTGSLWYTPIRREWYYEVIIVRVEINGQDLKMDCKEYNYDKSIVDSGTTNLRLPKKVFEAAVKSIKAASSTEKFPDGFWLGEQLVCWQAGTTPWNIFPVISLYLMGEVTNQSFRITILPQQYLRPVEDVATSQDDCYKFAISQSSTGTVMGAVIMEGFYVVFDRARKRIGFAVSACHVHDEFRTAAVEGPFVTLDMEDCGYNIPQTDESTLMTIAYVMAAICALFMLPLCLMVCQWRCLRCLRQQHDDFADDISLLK
Sequence of Human recombinant cathepsin D (P07339 65-412): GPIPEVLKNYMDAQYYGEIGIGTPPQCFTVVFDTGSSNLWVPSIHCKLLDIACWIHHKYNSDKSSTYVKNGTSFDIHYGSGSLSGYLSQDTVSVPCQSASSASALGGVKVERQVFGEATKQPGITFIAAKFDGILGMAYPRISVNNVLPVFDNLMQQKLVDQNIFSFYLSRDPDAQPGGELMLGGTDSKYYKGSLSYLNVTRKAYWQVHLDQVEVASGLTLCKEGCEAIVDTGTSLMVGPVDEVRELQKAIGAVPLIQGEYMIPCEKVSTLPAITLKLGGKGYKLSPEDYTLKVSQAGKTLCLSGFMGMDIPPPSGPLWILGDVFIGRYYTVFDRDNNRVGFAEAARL

CC#Cc1ccc2sc3ccc([C@]4(C)CS(=O)(=O)C(C)(C)C(N)=N4)cc3c2c1 [Example 103, (R)-5-Amino-3,6,6-trimethyl-3-(8-(prop-1-yn-1-yl)dibenzo[b,d]thiophen-2-yl)-3,6-dihydro-2H-1,4-thiazine 1,1-dioxide]
IC50 (recombinant BACE2): 12 nM | IC50 [1]: 17200 nM | IC50 [2]: 3140 nM | % of maximum Aβ40 inhibition over 24 hours [3]: 45.9% | IC50 [4]: 39 nM

CC#Cc1ccc2sc3cc(F)c([C@]4(C)CS(=O)(=O)C(C)(C)C(=N)N4)cc3c2c1 [Example 109, (R)-5-Amino-3-(3-fluoro-8-(prop-1-yn-1-yl)dibenzo[b,d]thiophen-2-yl)-3,6,6-trim ethyl-3,6-dihydro-2H-1,4-thiazine 1,1-dioxide]
IC50 (recombinant BACE2): 16 nM | IC50 [1]: 10800 nM | IC50 [2]: 4380 nM | % of maximum Aβ40 inhibition over 24 hours [3]: 37.3% | IC50 [4]: 25 nM
